Measurements from PMC5978884, “Dissection of the antimicrobial and hemolytic activity of Cap18: Generation of Cap18 derivatives with enhanced specificity” (PLoS ONE, 2018).
≈ marks a conversion by molar mass, not a printed value. Where two headings read alike, the source gives them in different places. Where no end group is shown, it is not given here.

Experiments:
Format in all cases: cell-based
[1] = system: Lactococcus lactis IL1403
Experimental: (§1) All strains were grown in Mueller-Hinton-II medium, except L. monocytogenes which was grown in BHI medium and L. lactis which was grown in MRS medium. Incubation took place aerobically at 37°C, except for Y. ruckeri and A. salmonicida, which were grown aerobically at RT (20 °C), and L. lactis grown aerobically at 30°C. All plates were incubated for 16–21 hours.
(§2) The minimum inhibitory concentrations (MICs) of the AMPs were measured in 96-well microtiter plates according the Clinical and Laboratory Standards Institute (CLSI, formerly National Committee for Clinical Laboratory Standards [NCCLS]). Briefly, liquid Mueller-Hinton-II medium containing increasing concentrations of AMPs is inoculated with a defined number of cells (approx. 10^5 CFUs/ml) in 96-well microtiter plates (polypropylene), whereas each plate also includes a positive growth control and a negative control (sterile control). The range of peptide concentrations analyzed was 0.125–64 μg/ml for the high purity peptides and 0.06–32 μg/ml for peptides of the variant library. After incubation, the MIC is determined by the lowest concentration showing no visible growth. All plates were incubated for 16–20 hours. The MIC of the reference antibiotics was determined by the use of Sensititre panels (Trek Diagnostic Systems Ltd, East Grinstead, UK).

[2] = system: Listeria monocytogenes N22-2
Experimental: as §1, §2

[3] = system: Enterococcus faecalis ATCC29212
Experimental: as §1, §2

[4] = system: Escherichia coli ATCC25922
Experimental: as §1, §2

[5] = system: Pseudomonas aeruginosa ATCC27853
Experimental: as §1, §2

[6] = system: Yersinia ruckeri 392/2003; assay: microbe, parasite or virus in culture; conditions: for MIC: Yersinia ruckeri, 392/2003, read-out: MIC Yersinia ruckeri 392/2003
Experimental: as §1, §2

[7] = system: Aeromonas salmonicida ATCC33658; assay: microbe, parasite or virus in culture; conditions: for MIC: Aeromonas salmonicida
Experimental: as §1, §2

[8] = system: Salmonella enterica serovar Typhimurium LT2; assay: microbe, parasite or virus in culture; conditions: for MIC S. Typhimurium / MIC S. Typhimurium LT2: LT2; for MIC: Salmonella enterica, TYPHIMURIUM, read-out: MIC Salmonella Typhimurium LT2
Experimental: as §1, §2

[9] = standard antibiotics, Sensititre panels, triplicates, ≤ = sensitive to lowest concentration in plate
[10] = ATCC33658, read-out: MIC Aermononas salmonicida ATCC33658

| Molecule | MIC L. lactis IL1403 [1] [µg/mL] | MIC L. monocytogenes N22-2 [2] [µg/mL] | MIC E. faecalis ATCC29212 [3] [µg/mL] | MIC E. coli ATCC25922 [4] [µg/mL] | MIC P. aeruginosa ATCC27853 [5] [µg/mL] | MIC Y. ruckeri [6] [µg/mL] | MIC Y. ruckeri 392/2003 [6] [µg/mL] | MIC A. salmonicida ([7]; ATCC33658) [µg/mL] | MIC A. salmonicida ATCC33658 ([7]; ATCC33658) [µg/mL] | MIC S. Typhimurium [8] [µg/mL] | MIC S. Typhimurium LT2 [8] [µg/mL] | other results |
| --- | --- | --- | --- | --- | --- | --- | --- | --- | --- | --- | --- | --- |
| GLRKRLRKFRNKHKEKLKKIGQKIQGLLPKLAPRTDY [Peptide 5] | ≥64 | 32 | ≥64 | 4 | 8 to 16 | 8 | 8 to 16 | 4 | 2 to 4 | 8 | 4 |  |
| GLRKRLRKFRNKIKEKLPKIGQKIQGLLPKLAPRTDY [Peptide 19] | 32 | 32 to 64 | ≥64 | 8 to 16 | 16 |  | 32 | 2 | 2 to 4 | 4 | 4 |  |
| CC1(C)S[C@@H]2[C@H](NC(=O)[C@H](N)c3ccccc3)C(=O)N2[C@H]1C(=O)O [Ampicillin, reference compound] |  |  |  |  |  |  |  |  |  |  |  | MIC [6]: 2 µg/mL (≈ 5.72 µM); MIC ([7]; ATCC33658, standard antibiotics, Sensititre panels, triplicates, ≤ = sensitive to lowest concentration in plate, read-out: MIC Aermononas salmonicida ATCC33658): ≤ 1 µg/mL; MIC [8, 9]: ≤ 1 µg/mL |
| CNC(C)C1CCC(N)C(OC2C(N)CC(N)C(OC3OCC(C)(O)C(NC)C3O)C2O)O1 (stereo not drawn) [Gentamicin, reference compound] |  |  |  |  |  |  |  |  |  |  |  | MIC [6]: 1 to 2 µg/mL (≈ 2.09 to 4.19 µM); MIC [7, 10]: 1 µg/mL (≈ 2.09 µM); MIC [8]: 0.5 to 1 µg/mL (≈ 1.05 to 2.09 µM) |
| Polymyxin E [reference compound] |  |  |  |  |  |  |  |  |  |  |  | MIC Yersinia ruckeri 392/2003 ([6]; standard antibiotics, Sensititre panels, triplicates): 1 to 2 µg/mL; MIC Aermononas salmonicida ATCC33658 [7, 9]: 2 µg/mL; MIC Salmonella Typhimurium LT2 [8, 9]: 2 µg/mL |
| GLRKRLRKFRNKIKEKLKKEGQKIQGLLPKLAPRTDY [Peptide 20] | 32 | 32 | ≥64 | ≥64 | 16 | 16 | 32 | 8 | 16 | 4 | 8 |  |
| GLRKRDRKFRNKIKEKLKKIGQKIQGLLPKLAPRTDY [Peptide L6D] |  |  |  |  |  |  |  | 16 |  | 8 |  | MIC L. lactis [1]: 16 µg/mL |
| GLRKRLRKFRNKIKECLKKIGQKIQGLLPKLAPRTDY [Peptide 9] | ≥64 | 16 | 32 | 8 | 16 to 32 | 2 | 8 to 16 | 4 | 8 | 8 | 8 to 16 |  |
| GLRKRLRKFRNKNKEKLKKIGQKIQGLLPKLAPRTDY [Peptide I13N] |  |  |  |  |  |  |  | 8 |  | 8 |  |  |
| GLRKRLRKFRNKIKEKLKKICQKIQGLLPKLAPRTDY [Peptide 23] | ≥64 | 16 | 32 | 16 | 32 | 4 | 16 | 4 | 16 to 32 | 8 | 16 |  |
| GLRKRLRKFRNKIKEKLKKIGQKIQGPLPKLAPRTDY [Peptide 31] | 32 | 32 | ≥64 | ≥64 | 8 | 16 | 32 | 16 | 16 | 4 | 8 |  |
| GLRKRLRKFRNKSKEKLKKIGQKIQGLLPKLAPRTDY [Peptide 8] | ≥64 | 32 | ≥64 | 16 | 8 to 16 |  | 8 to 16 | 2 | 4 | 4 | 8 | MIC L. lactis [1]: 8 µg/mL |
| GLRKRLRKFRNKIKEKLKKIGQKIQGLLPKLAPRTDD [Peptide Y37D] |  |  |  |  |  | 2 |  | 2 |  |  |  | MIC L. lactis [1]: 8 µg/mL |
| GLRKRLRKFRNKIKEKLKKRGQKIQGLLPKLAPRTDY [Peptide I20R] |  |  |  |  |  | 16 |  | 16 |  | 8 |  |  |
| GLRKRLRKFRNKIKEKLKKQGQKIQGLLPKLAPRTDY [Peptide I20Q] |  |  |  |  |  | 8 |  | 8 |  | 8 |  |  |
| GLRKRLRKFRNKIKEKHKKIGQKIQGLLPKLAPRTDY [Peptide L17H] |  |  |  |  |  |  |  | 8 |  | 8 |  |  |
| GLRKRLRKFRNKIKEKLKKIGQKIQGLLPKCAPRTDY [Peptide L31C] |  |  |  |  |  | 4 |  | 4 |  |  |  | MIC L. lactis [1]: 8 µg/mL |
| GLRKRLRKFRNKIKEKLKKIGQKIQGLLPKLAPRHDY [Peptide T35H] |  |  |  |  |  | 2 |  | 2 |  |  |  | MIC L. lactis [1]: 8 µg/mL |
| CCn1cc(C(=O)O)c(=O)c2ccc(C)nc21 [Nalidixic acid, reference compound] |  |  |  |  |  |  |  |  |  |  |  | MIC [6]: 32 µg/mL (≈ 138 µM); MIC [7, 10]: ≤ 4 µg/mL; MIC [8]: ≤ 4 µg/mL |
| GLRKRLRKFRNKIKEKLKKIGQKHQGLLPKLAPRTDY [Peptide I24H] |  |  |  |  |  |  |  | 8 |  | 8 |  |  |
| GLRKRLRKFRNKIKEKCKKIGQKIQGLLPKLAPRTDY [Peptide L17C] |  |  |  |  |  |  |  | 8 |  | 8 |  |  |
| GLRKRRRKFRNKIKEKLKKIGQKIQGLLPKLAPRTDY [Peptide L6R] |  |  |  |  |  | 16 |  | 16 |  | 8 |  |  |
| GLRKRLRKFRNKIKEKLKKIIQKIQGLLPKLAPRTDY [Peptide G21I] |  |  |  |  |  | 8 |  | 8 |  | 8 |  |  |
